Biological target: T1, NMDA receptor glycine site (Rattus norvegicus, UniProt P35439)
T1 construct: tissue Analytical Biological Services Inc; host or cells: rat brain membranes (cerebral cortex and hippocampus, male Sprague Dawley rats)
Experiment: Test A: Inhibition of binding of [3H]-MDL105,519
Conditions: inhibition of 1.2 nM [3H]MDL105,519 binding to brain membranes; table does not say rat or human membranes
Description: Test A: Inhibition of Binding of [^3H]-MDL105,519:
Binding of compounds to the NMDA receptor glycine site may be assessed by measuring the ability of test compounds to inhibit the binding of tritiated MDL105,519 to brain membranes bearing the receptor.
Briefly, fresh brain tissue including cerebral cortex and hippocampus from male Sprague Dawley rats was homogenized in 0.32 M sucrose and centrifuged at low speed to separate cellular membranes from other cellular components. The membranes were then washed 3 times using deionized water, followed by treatment with 0.04% Triton X-100. Finally, membranes were washed six times in 50 mM Tris citrate buffer, pH 7.4, and frozen at −80° C. until use.
[^3H]MDL105,519 (72 Ci/mmol) was purchased from Amersham. Cold MDL105,519 was purchased from Sigma/RBI. […] On the day of the experiment, brain membranes were thawed at room temperature and suspended in 50 mM tris acetate buffer, pH 7.4 (“TAB”). Seventy-five micro grams per milliliter protein (by using the BioRad dye) were used for competition binding. The experiments were carried out using 96-well plates. […] Non specific binding was determined by using 100 μM of unlabeled MDL105,519. […] After incubation, unbound [^3H]MDL105,519 was removed by filtration onto GF/B Unifilter plates using a Packard harvester. Filters were washed four times with ice cold TAB (total of 1.2 mL buffer). The plates were dried overnight at room temperature and bound radioactivity was measured on a Packard TopCount after the addition of 45 μL per well of the MICROSCINT O.
Human Brain Membranes: Human brain membranes were obtained from Analytical Biological Services Inc., and assays were performed as described for rat membranes.
Data analysis: Data was analyzed using a Microsoft Excel spreadsheet and GraphPad Prizm software and potency of compounds is expressed as the Ki (nM).

Compound | Ki [nM]
COc1ccc(Cn2nc(O)c3[nH]c4cc(Cl)ccc4c(=O)c3c2=O)cc1OC(=O)N1CCOCC1 [Ex. 16, Morpholine-4-carboxylic acid 5-(7-chloro-4-hydroxy-1,10-dioxo-5,10-dihydro-1H-pyridazino[4,5-b]quinolin-2-ylmethyl)-2-methoxy-phenyl ester] | 86.6
COc1ccc(Cn2nc(O)c3[nH]c4cc(Cl)ccc4c(=O)c3c2=O)cc1OC(=O)N(C)C [Ex. 14, Dimethyl-carbamic acid 5-(7-chloro-4-hydroxy-1,10-dioxo-5,10-dihydro-1H-pyridazino[4,5-b]quinolin-2-ylmethyl)-2-methoxy-phenyl ester] | 165
Cc1cc(Cn2nc(O)c3[nH]c4cc(Cl)ccc4c(=O)c3c2=O)ccc1OC(=O)N(C)c1ccccc1 [Ex. 13, Methyl-phenyl-carbamic acid 4-(7-chloro-4-hydroxy-1,10-dioxo-5,10-dihydro-1H-pyridazino[4,5-b]quinolin-2-ylmethyl)-2-methyl-phenyl ester] | 59
Cc1cc(Cn2nc(O)c3[nH]c4cc(Cl)ccc4c(=O)c3c2=O)ccc1OC(=O)N1CCOCC1 [Ex. 12, Morpholine-4-carboxylic acid 4-(7-chloro-4-hydroxy-1,10-dioxo-5,10-dihydro-1H-pyridazino[4,5-b]quinolin-2-ylmethyl)-2-methyl-phenyl ester] | 267

— US20050227977A1, “Substituted 1,2,5,10-tetrahydropyridazino [4,5-b]quinoline-1,10-dione compounds and methods for the treatment of pain” (AstraZeneca AB, priority 1999, published 2005)
